Laboratory results published in patent US8853234B2, “Quinolone analogs and methods related thereto” (Senhwa Biosciences, Inc., priority 2007, dated 2014).
pIC50: −log10 of the molar value.

Key:
rDNA = assay: Quantitative PCR (QPCR) assay, rRNA inhibition (rDNA); assay type: cell-based; parameters: Selectivity: reference not given here; settings: for Selectivity: not defined in the patent; for pIC50: rRNA inhibition from quantitative PCR assay
Source text: In a specific assay embodiment, provided herein is a method for identifying a molecule that modulates ribosomal RNA (rRNA) synthesis, which comprises: contacting cells with a test molecule of Formula (I), (II), (III), (IV), (V), (VI), (VI′), (VII), or (VIII), contacting a ribosomal nucleotide sequence with one or more primers that amplify a portion thereof and a labeled probe that hybridizes to the amplification product, and detecting the amount of the amplification product by hybridization of the labeled probe, whereby a test molecule that reduces or increases the amount of amplification product is identified as a molecule that modulates rRNA synthesis. The labeled probe in some embodiments is added after the primers are added and the rRNA is amplified, and in certain embodiments, the labeled probe and the primers are added at the same time. The portion of ribosomal nucleotide sequence amplified sometimes is at the 5′ end of rDNA.
Real-time quantitative PCR (QPCR) method may be used to detect the changes of the target c-myc and the endogenous reference GAPDH gene copies in the same tube. Generally, cells (15,000 cells/well) are seeded on 96 well flat bottom plates (Corning, N.Y.) and incubated under normal growth conditions for overnight. The next day, the culture medium is exchanged for that containing anticancer drugs at various concentrations and incubated for 4 hrs in a humidified atmosphere of 5% CO2 at 37° C. Total RNA (tRNA) is extracted using the RNeasy 96 Kit (QIAGEN, CA). The concentration of the tRNA is determined by the RiboGreen RNA Quantitation Reagent (Molecular Probes, OR).
A reverse-transcription (RT) reaction may be conducted using 50 ng of tRNA from each well in a 25 μl reaction containing 1× TaqMan RT buffer, 2.5 uM random hexamers, 5.5 mM MgCl2, 0.5 mM each deoxynucleoside triphosphate (dNTP), 30 U MultiScribe Reverse Transcriptase, and 10 U RNase inhibitor. RT reactions are incubated for 10 min at 25° C., reverse-transcribed for 30 min at 48° C., inactivated for 5 min at 95° C., and placed at 4° C. All RT reagents may be purchased from Applied Biosystems, CA.
Real-Time QPCR reaction may be performed in a 50 μl reaction containing the 5 μl of cDNA, 1× Universal PCR Master Mix, 1× c-myc Pre-Developed Primers and Probe set, and 0.8×GAPDH Pre-Developed Primers and Probe set. Because of the relative abundance of GAPDH gene in Hela, GAPDH primers and probe concentration may be adjusted to get accurate threshold cycles (CT) for both genes in the same tube. The threshold cycle (CT) indicates the fractional cycle number at which the amount of amplified target reaches a fixed threshold. By doing so, the GAPDH amplification is stopped before it can limit the common reactants available for amplification of the c-myc. The ΔRn value represents the normalized reporter signal minus the baseline signal. ΔRn increases during PCR as amplicon copy number increases until the reaction approaches a plateau.
The c-myc probe is labeled with 6FAM™ dye-MGB and the GAPDH probe is labeled with VIC™ dye-MTB. Preincubation is performed for 2 min at 50° C. to activate AmpErase UNG enzyme and then for 10 min at 95° C. to activate AmpliTaq DNA Polymerase. DNA is amplified for 40 cycles of 15 sec at 95° C. and 1 min at 60° C. Human c-myc and GAPDH cDNA are amplified, detected, and quantitated in real time using the ABI Prism 7000 Sequence Detection system (Applied Biosystems, CA), which is set to detect both 6-FAM and VIC reporter dyes simultaneously.
The data may be analyzed using the ABI PRISM Sequence Detection System and Microsoft Excel. Relative quantitation is done using the standard curve and comparative CT method at the same time, and both methods gave equivalent results. The cycle at which the amplification plot crosses the CT is known to accurately reflect relative mRNA values. (See, Heid, et al., Genome Res. (1996) 6:986-994; Gibson, et al., Genome Res. (1996) 6:995-1001). […]

[1] = Pharmacokinetic evaluation IV bolus and oral (bioavailability) in ICR mice; assay type: in vivo; settings: mouse, plasma, IV 5 mg/kg and PO 25 mg/kg, read-out: Bioavailability (% F)
Description: The pharmacokinetics properties of drugs are investigated in ICR mice following an intravenous (IV) bolus and oral (PO) doses of drug at 5 mg/kg and 25 mg/kg respectively. Blood samples are collected at predetermined times and the plasma separated. Plasma is separated from the blood samples collected at 5, 15 and 30 minutes and 1, 2, 4, 8 and 24 hours post-dose.
Drug levels are quantified by the LC/MS/MS method described below. Noncompartmental pharmacokinetic analysis is applied for intravenous administration. A linear trapezoidal rule is used to compute AUC(0-24) or AUC(0-8). The terminal t1/2 and C0 are calculated using the last three and the first three data points, respectively
Bioanalysis is performed using a Quattro Micro LC/MS/MS instrument in the MRM detection mode, with an internal standard (IS). Briefly, 15 μL plasma samples are prepared for analysis using protein precipitation with 120 μL of acetonitrile. The supernatants are transferred into a 96 well plate and subjected to LC-MS/MS analysis using a PHENOMENEX® Polar-RP HPLC column. The mobile phases are 10 mM NH4HCO3 in water (Solution-A) and 10 mM NH4HCO3 in methanol (Solution-B). The column is initially equilibrated with 25% Solution-B and followed with 100% Solution B over 5 minutes. The method has a dynamic range from 1 to 10,000 ng/mL. Quantitation of the analytes is performed in the batch mode with two bracketing calibration curves according to the bioanalytical sample list.

SMILES | Selectivity (rDNA) | pIC50 (rDNA) | bioavailability [1]
O=C(NCCNCCF)c1c(=O)c2ccc(N3CCOCC3)nc2n2c1sc1ccccc12 | 48 | 7.23 | –
O=C(NCCN1CCC(O)C1)c1c(=O)c2cc(F)c(N3CCOCC3)nc2n2c1sc1ccccc12 (stereo not drawn) | 10 | 8.00 | –
O=C(NCCNC1CC1)c1c(=O)c2cc(F)c(N3CCOCC3)nc2n2c1sc1ccccc12 | 53 | 6.61 | –
O=C(NCCn1ccnc1)c1c(=O)c2ccc(N3CCOCC3)nc2n2c1sc1ccccc12 | 24 | 6.37 | –
O=C(NCC1CCCN1)c1c(=O)c2cc(F)c(N3CCOCC3)nc2n2c1sc1ccccc12 (stereo not drawn) | 25 | 7.80 | –
CN1CCCC1CNC(=O)c1c(=O)c2cc(F)c(N3CCOCC3)nc2n2c1sc1ccccc12 (stereo not drawn) | 45 | 6.42 | –
O=C(NCCNC1CCC1)c1c(=O)c2ccc(N3CCOCC3)nc2n2c1sc1ccccc12 | 16 | 6.75 | –
O=C(NCCNCC1CCCO1)c1c(=O)c2ccc(N3CCOCC3)nc2n2c1sc1ccccc12 (stereo not drawn) | 119 | 7.40 | 2%
CN1CCCCC1CNc1ccc2c(=O)c(C(=O)NCc3ccncc3)c3sc4ccccc4n3c2n1 (stereo not drawn) | 39 | 7.17 | –
O=C(NCCN1CCCC1)c1c(=O)c2ccc(N3CCOCC3)nc2n2c1sc1ccccc12 | 162 | 7.28 | 10.7%
Cc1cnc(CNC(=O)c2c(=O)c3ccc(N4CCN(C)CC4)nc3n3c2sc2ccccc23)cn1 [drawing 619] | 13 | 7.16 | –
O=C(c1c(=O)c2ccc(N3CCOCC3)nc2n2c1sc1ccccc12)N1CCN(c2ccccn2)CC1 | 17 | 6.14 | –
CN1CCCC1CCNC(=O)c1c(=O)c2cc(F)c(N3CCOCC3)nc2n2c3ccccc3n(C)c12 (stereo not drawn) | 8 | 6.28 | 10.4%
CN1CCC(N(C)C(=O)c2c(=O)c3cc(F)c(N4CCOCC4)nc3n3c2sc2ccccc23)C1 (stereo not drawn) | 5 | 6.42 | –
O=C(NCCN1CCOCC1)c1c(=O)c2ccc(N3CCOCC3)nc2n2c1sc1ccccc12 | 16 | 6.30 | –
CN1CCN(c2ccc3c(=O)c(C(=O)NC4CC4)c4n(C)c5ccccc5n4c3n2)CC1 | 4 | 6.90 | –
Cn1ccnc1CNC(=O)c1c(=O)c2cc(F)c(N3CCOCC3)nc2n2c1sc1ccccc12 | 11 | 6.87 | 15.8%
CN1CCCN(C(=O)c2c(=O)c3cc(F)c(N4CCOCC4)nc3n3c2sc2ccccc23)CC1 | 10 | 6.63 | –
CN1CCCC1CCNC(=O)c1c(=O)c2ccc(N3CCOCC3)nc2n2c1sc1ccccc12 (stereo not drawn) | 42 | 6.60 | –
CN1CCCCC1CNC(=O)c1c(=O)c2ccc(N3CCOCC3)nc2n2c1sc1ccccc12 (stereo not drawn) | 2778 | 8.05 | –
Cn1c2ccccc2n2c3nc(N4CCOCC4)c(F)cc3c(=O)c(C(=O)N3CCN4CCCC4C3)c12 (stereo not drawn) | 10 | 6.08 | –
O=C(NNC1=NCCN1)c1c(=O)c2cc(F)c(N3CCOCC3)nc2n2c1sc1ccccc12 | 893 | 7.55 | 0.1%

SMILES | Selectivity (rDNA) | pIC50 (rDNA) | bioavailability [1]
O=C(NCCN1CC=CC1)c1cn2c3c(c(N4CCC(c5cnccn5)C4)c(F)cc3c1=O)Oc1cc3ccccc3cc1-2 (stereo not drawn) | 24 | 5.98 | –
O=C(NCCNCC(F)(F)F)c1c(=O)c2ccc(N3CCOCC3)nc2n2c1sc1ccccc12 | 15 | 6.30 | –
Cn1cncc1CNC(=O)c1c(=O)c2ccc(N3CCOCC3)nc2n2c1sc1ccccc12 | 60 | 6.58 | 12.4%
CN1CCCC(NC(=O)c2c(=O)c3cc(F)c(N4CCOCC4)nc3n3c2sc2ccccc23)C1 (stereo not drawn) | 862 | 7.54 | –
O=C(NCCNCCF)c1c(=O)c2cc(F)c(N3CCOCC3)nc2n2c1sc1ccccc12 | 70 | 6.83 | –
CN1CCN(c2ccc3c(=O)c(C(=O)NCc4ccccn4)c4sc5ccccc5n4c3n2)CC1 | 111 | 6.95 | 41.4%
CN1CCN(c2nc3c(cc2F)c(=O)c(C(=O)NCc2cn(C)cn2)c2sc4ccccc4n23)CC1 | 69 | 6.86 | –
Cn1c2ccccc2n2c3nc(N4CCOCC4)c(F)cc3c(=O)c(C(=O)NCCN3CCCC3)c12 | 7 | 6.50 | –
O=C(NCCN1CCCC1)c1c(=O)c2cc(F)c(N3CCOCC3)nc2n2c1sc1ccccc12 | 70 | 6.90 | –
O=C(NCCN1CC=CC1)c1c(=O)c2cc(F)c(N3CCOCC3)nc2n2c1sc1ccccc12 | 3 | 7.38 | –
O=C(NCCN1CC=CC1)c1c(=O)c2ccc(N3CCOCC3)nc2n2c1sc1ccccc12 | 22 | 7.19 | 27.5%
Cn1ccnc1CNC(=O)c1c(=O)c2ccc(N3CCOCC3)nc2n2c1sc1ccccc12 | 9 | 6.76 | 17.9%
O=C(c1c(=O)c2ccc(N3CCOCC3)nc2n2c1sc1ccccc12)N1CCN(c2ncccn2)CC1 | 13 | 6.24 | 31.1%
O=C(NCCNC1CC1)c1c(=O)c2ccc(N3CCOCC3)nc2n2c1sc1ccccc12 [drawing 604] | 39 | 7.00 | 43.3%
O=C(NCCN1CC=CCC1)c1c(=O)c2ccc(N3CCOCC3)nc2n2c1sc1ccccc12 | 64 | 7.49 | –
Cn1ccnc1CNC(=O)c1c(=O)c2cc(N3CCOCC3)nnc2n2c1sc1ccccc12 | 53 | 6.48 | –
Cc1nccn1CCNC(=O)c1c(=O)c2ccc(N3CCOCC3)nc2n2c1sc1ccccc12 | 21 | 7.08 | –
CN1CCCC1CCNC(=O)c1cn2c3c(c(N4CCOCC4)c(F)cc3c1=O)Oc1ccccc1-2 (stereo not drawn) | 12 | 6.39 | –
CN1CCN(C(=O)c2c(=O)c3cc(F)c(N4CCOCC4)nc3n3c2sc2ccccc23)CC1 | 7 | 5.94 | 30.3%
CN1CCCC1CCNC(=O)c1c(=O)c2cc(F)c(N3CCOCC3)nc2n2c1sc1ccccc12 (stereo not drawn) | 10 | 6.05 | 22.4%
Cn1c2ccccc2n2c3nc(N4CCOCC4)ccc3c(=O)c(C(=O)NCCN3CCCC3)c12 | 3 | 6.58 | –
